From patent US6797255B1, “Methods and compositions for enhancing magnetic resonance imaging” (Mallinckrodt Inc., priority 1985, dated 2004)

How the values were obtained:
[1] = Solubility of the complex in water; assay type: physicochemical
Experimental: The complex, dihydrogen bis(N-[N′-(2,6-diisopropylphenyl)carbamoylmethyl]iminodiaceto)manganese(II) hydrate, was thus isolated as the hydrated species. The solubility of the complex in water was determined to be approximately 0.1% w/v. The relaxation parameters T1 and T2 of a 10-^−3M solution of the complex in a 90 MHz NMR experiment were determined to be 0.107 sec. and 0.007 sec. respectively. The T1 and T2 values for water are 2.51 sec. and 0.150 sec., respectively.
The relaxation parameters T1 and T2 of a 10^−3M solution of the complex in a 90 MHz NMR experiment were determined to be 126 milliseconds and 1.5 milliseconds, respectively.

[2] = tested on: rabbits; assay: Tissue T1 and T2 relaxation times 45 min after intravenous injection (time course); assay type: in vivo; conditions: for T1 relaxation time / T2 relaxation time: 45 min after 0.03 mmol/kg i.v., 10 mHz RADX
Experimental: (§1) All experiments employing the complex dihydrogen bis(N-[N′-(2,6-dimethylphenyl)carbamoylmethyl]iminodiaceto)manganese (II) trihydrate were conducted following intravenous administration to rabbits. A 10 mM solution of the complex was used in these studies. Rabbits were anesthetized with ketamine/xylazine prior to treatment. The results given were obtained with a 10 mHz RADX proton spin analyzer.
A second study was performed in two rabbits killed 45 min after intravenous injection of 0.03 mmol of the complex/Kg to examine the time course of T1 and T2relaxation enhancement.

[3] = tested on: rabbit; assay: Tissue T1 and T2 relaxation times 5 min, 15 min or 1 week after 0.05 mmol/kg intravenous dose; assay type: in vivo; conditions: 0.05 mmol/kg i.v.
Experimental: as §1
In another study, employing an intravenous dose of 0.05 mmol of the complex/Kg, one rabbit was killed at time points of 5 min, 15 min or 1 week after dosing. In animals killed at 5 and 15 min, heart and liver T1 and T2 relaxation times were determined with 5 and 10 mHz instruments.

What does the source list for `Cc1cccc(C)c1NC(=O)CN(CC(=O)[O-])CC(=O)O.Cc1cccc(C)c1NC(=O)CN(CC(=O)[O-])CC(=O)O.O.O.O.[Mn+2]` [Example 2]?
solubility of the complex in water [1]: 2.5 % w/v; solubility of the complex in water (molar) [1]: approximately 3.6×10^−3 M; tissue T1 relaxation times at 45 min compared with 15 min ([2]; 0.03 mmol/kg i.v.): decreased to the same extent as noted at 15 min; T1 relaxation time ([2]; Bladder): 367 ms; T2 relaxation time ([2]; Bladder): 72 ms; T1 relaxation time ([2]; Fat): 137 ms; T2 relaxation time ([2]; Fat): 125 ms; T1 relaxation time ([2]; Heart): 265 ms; T2 relaxation time ([2]; Heart): 57 ms; T1 relaxation time ([2]; Large Intestine): 154 ms; T2 relaxation time ([2]; Large Intestine): 47 ms; T1 relaxation time ([2]; Liver): 37 ms; T2 relaxation time ([2]; Liver): 24 ms; T1 relaxation time ([2]; Lung): 438 ms; T2 relaxation time ([2]; Lung): 89 ms; T1 relaxation time ([2]; Pancreas): 117 ms; T2 relaxation time ([2]; Pancreas): 75 ms; T1 relaxation time ([2]; Renal cortex): 143 ms; T2 relaxation time ([2]; Renal cortex): 57 ms; T1 relaxation time ([2]; Renal medulla): 244 ms; T2 relaxation time ([2]; Renal medulla): 91 ms; T1 relaxation time ([2]; Skeletal muscle): 315 ms; T2 relaxation time ([2]; Skeletal muscle): 41 ms; T1 relaxation time ([2]; Small Intestine): 129 ms; T2 relaxation time ([2]; Small Intestine): 48 ms; T1 relaxation time ([2]; Spleen): 271 ms; T2 relaxation time ([2]; Spleen): 71 ms; T1 relaxation time ([2]; Stomach): 159 ms; T2 relaxation time ([2]; Stomach): 47 ms; heart and liver T1 values ([3]; killed at 5 and 15 min, 5 and 10 mHz instruments): reduced tissue T1 values at both frequencies; tissue T1 and T2 relaxation times ([3]; rabbit killed at 1 week): returned to control values
